2 compounds from patent US20250388544A1, “HETEROAROMATIC INHIBITORS OF ASTACIN PROTEINASES” (VIVORYON THERAPEUTICS N.V., priority 2019, published 2025) can be followed below.

As usually defined, the IC50 is the concentration that gives 50% inhibition.

Type in all cases: biochemical
Assay [1] has as its target T1, hMeprin β (Homo sapiens, UniProt Q16820).
T1 sequence (Q16820 62-701): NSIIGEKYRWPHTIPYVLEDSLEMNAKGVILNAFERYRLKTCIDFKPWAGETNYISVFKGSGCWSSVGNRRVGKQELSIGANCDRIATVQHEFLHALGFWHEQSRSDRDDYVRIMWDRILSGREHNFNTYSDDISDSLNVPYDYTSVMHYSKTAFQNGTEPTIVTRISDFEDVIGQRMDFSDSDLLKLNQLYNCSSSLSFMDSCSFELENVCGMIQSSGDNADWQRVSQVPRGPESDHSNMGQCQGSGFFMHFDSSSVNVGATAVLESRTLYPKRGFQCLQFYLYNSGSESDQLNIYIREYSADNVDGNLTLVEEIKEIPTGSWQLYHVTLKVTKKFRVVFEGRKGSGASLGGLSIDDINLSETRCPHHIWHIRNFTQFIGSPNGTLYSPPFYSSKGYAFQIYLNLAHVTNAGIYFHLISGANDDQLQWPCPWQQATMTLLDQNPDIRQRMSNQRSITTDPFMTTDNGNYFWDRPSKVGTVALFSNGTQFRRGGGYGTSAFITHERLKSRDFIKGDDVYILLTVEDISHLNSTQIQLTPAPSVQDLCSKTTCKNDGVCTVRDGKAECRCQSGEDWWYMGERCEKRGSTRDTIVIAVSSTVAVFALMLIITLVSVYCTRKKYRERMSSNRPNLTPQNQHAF
Description: Enzymatic assay, quenched peptide substrate cleavage, method B. The conditions noted are these: geometric mean (geometric SD factor in parentheses); for Ki: Morrison's equation, read-out: Meprin beta Ki(app); for IC50: read-out: Meprin beta IC50. Summed up:
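Cleavage of internally quenched peptides was read at 340/420 nm and 30° C., with enzyme at 5e-8 to 2e-10 M and substrate at 0.15–80 μM. Inhibitor solutions contained 1% DMSO and substrate 0.5% DMSO. Method B gave Ki(app) values via Morrison's equation, with kinetics measured in at least duplicate on separate days.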

In assay [2] the target is T2, hMMP 13 (Homo sapiens, UniProt P45452).
T2 construct: purchased R&D systems
Description: Residual enzyme activity of other metalloproteases. The conditions noted are these: read-out: Residual enzyme activity MMP13; for remaining activity at 10 µM: 10 μM inhibitor; for remaining activity at 200 µM: 200 μM inhibitor. The method, then:
(§1) A typical assay of 250 μl total volume measured in black 96 well plates consisted of 100 μl buffer, 50 μl enzyme at a final concentration of 5e-8 M to 2e-10 M, 50 μl substrate (0.15 to 80 μM, in buffer, 0.5% DMSO) and 50 μl inhibitor solution (in buffer, 1% DMSO). In case of 125 μl assay volume (black 96 half area well plates) all volumes were cut in half. Enzymatic activity of ADAMs was measured in 384 well plates with 60 μl total assay volume consisting of 20 μl inhibitor, 20 μl buffer, 10 μl enzyme and 10 μl substrate.
(§2) MMPs were activated prior to measurement by APMA (p-aminophenylmercuric acetate) treatment according to manufacturer's instructions (R&D systems).

Assay [3] concerns the target T3, hMMP 2 (Homo sapiens, UniProt P08253).
T3 construct: purchased Abnova
T3 sequence (P08253 110-660): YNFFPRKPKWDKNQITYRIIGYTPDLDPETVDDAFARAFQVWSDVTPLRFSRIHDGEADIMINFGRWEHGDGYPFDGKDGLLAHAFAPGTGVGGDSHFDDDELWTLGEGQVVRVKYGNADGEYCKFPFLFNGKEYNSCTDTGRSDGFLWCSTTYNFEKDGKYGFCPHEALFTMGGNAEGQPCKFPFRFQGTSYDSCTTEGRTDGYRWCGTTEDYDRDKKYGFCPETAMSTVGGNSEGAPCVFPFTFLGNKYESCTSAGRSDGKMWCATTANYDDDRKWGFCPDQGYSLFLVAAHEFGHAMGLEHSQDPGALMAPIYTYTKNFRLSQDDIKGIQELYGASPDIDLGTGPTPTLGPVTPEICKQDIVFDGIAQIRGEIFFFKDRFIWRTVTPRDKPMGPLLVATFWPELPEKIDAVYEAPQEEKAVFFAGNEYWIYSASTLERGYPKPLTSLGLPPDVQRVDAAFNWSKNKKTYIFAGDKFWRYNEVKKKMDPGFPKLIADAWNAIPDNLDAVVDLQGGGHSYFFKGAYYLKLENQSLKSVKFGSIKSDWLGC
Description: Residual enzyme activity of other metalloproteases. The settings on record: read-out: Residual enzyme activity MMP2; for remaining activity at 10 µM: 10 μM inhibitor; for remaining activity at 200 µM: 200 μM inhibitor. The method, then: as §1, §2

The target of assay [4] is T4, hMMP 9 (Homo sapiens, UniProt P14780).
T4 construct: purchased R&D systems
Description: Residual enzyme activity of other metalloproteases. The settings on record: read-out: Residual enzyme activity MMP9; for remaining activity at 10 µM: 10 μM inhibitor; for remaining activity at 200 µM: 200 μM inhibitor. Summed up: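 Fluorogenic cleavage of internally quenched peptides; enzyme 5e-8 to 2e-10 M final, substrate 0.15–80 μM, inhibitor in buffer with 1% DMSO. MMPs activated beforehand with APMA.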

Assay [5] addresses T5, hADAM 10 (Homo sapiens, UniProt O14672).
T5 construct: purchased R&D systems
T5 sequence (O14672 214-748): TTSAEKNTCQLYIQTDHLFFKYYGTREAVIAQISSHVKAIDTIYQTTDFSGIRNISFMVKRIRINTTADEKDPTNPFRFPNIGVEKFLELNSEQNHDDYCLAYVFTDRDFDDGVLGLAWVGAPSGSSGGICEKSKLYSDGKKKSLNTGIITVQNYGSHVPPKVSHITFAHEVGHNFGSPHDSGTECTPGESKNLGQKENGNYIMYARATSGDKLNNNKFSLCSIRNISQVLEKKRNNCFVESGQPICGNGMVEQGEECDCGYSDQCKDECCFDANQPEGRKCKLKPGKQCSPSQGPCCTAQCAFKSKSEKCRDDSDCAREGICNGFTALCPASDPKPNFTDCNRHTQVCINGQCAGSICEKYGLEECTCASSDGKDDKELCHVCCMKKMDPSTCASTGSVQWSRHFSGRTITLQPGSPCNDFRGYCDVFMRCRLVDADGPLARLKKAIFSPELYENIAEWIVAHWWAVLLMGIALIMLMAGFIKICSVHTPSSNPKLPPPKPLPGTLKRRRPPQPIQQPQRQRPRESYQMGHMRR
Description: Residual enzyme activity of other metalloproteases. The settings on record: read-out: Residual enzyme activity ADAM10; for remaining activity at 10 µM: 10 μM inhibitor; for remaining activity at 200 µM: 200 μM inhibitor. Summed up:
(§3)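 Activity followed by cleavage of internally quenched peptide substrates (0.15 to 80 μM, 0.5% DMSO) with enzyme at 5e-8 M to 2e-10 M final and inhibitor in buffer with 1% DMSO. ADAM activity was run in a 60 μl format.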

Assay [6] has as its target T6, hADAM 17 (Homo sapiens, UniProt P78536).
T6 construct: purchased R&D systems
Description: Residual enzyme activity of other metalloproteases. The conditions noted are these: read-out: Residual enzyme activity ADAM17; for remaining activity at 10 µM: 10 μM inhibitor; for remaining activity at 200 µM: 200 μM inhibitor. Summed up: as §3

T6 sequence (P78536 215-824): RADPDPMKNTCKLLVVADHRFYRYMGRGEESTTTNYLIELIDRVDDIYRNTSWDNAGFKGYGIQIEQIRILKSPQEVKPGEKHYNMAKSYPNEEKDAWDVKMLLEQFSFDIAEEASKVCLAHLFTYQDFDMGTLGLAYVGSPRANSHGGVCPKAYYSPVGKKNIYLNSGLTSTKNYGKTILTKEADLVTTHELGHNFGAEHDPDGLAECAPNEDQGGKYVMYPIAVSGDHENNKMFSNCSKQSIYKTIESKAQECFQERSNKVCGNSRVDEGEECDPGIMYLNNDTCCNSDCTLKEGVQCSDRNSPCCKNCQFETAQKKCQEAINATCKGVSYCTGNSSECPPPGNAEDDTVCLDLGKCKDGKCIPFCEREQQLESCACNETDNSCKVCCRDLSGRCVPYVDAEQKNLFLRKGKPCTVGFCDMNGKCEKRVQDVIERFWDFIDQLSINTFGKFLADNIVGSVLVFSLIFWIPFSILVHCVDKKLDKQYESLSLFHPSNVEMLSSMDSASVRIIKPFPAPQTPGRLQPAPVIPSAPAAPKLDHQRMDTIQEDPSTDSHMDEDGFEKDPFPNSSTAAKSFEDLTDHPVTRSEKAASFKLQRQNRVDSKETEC
T4 sequence (P14780 107-707 limits assumed): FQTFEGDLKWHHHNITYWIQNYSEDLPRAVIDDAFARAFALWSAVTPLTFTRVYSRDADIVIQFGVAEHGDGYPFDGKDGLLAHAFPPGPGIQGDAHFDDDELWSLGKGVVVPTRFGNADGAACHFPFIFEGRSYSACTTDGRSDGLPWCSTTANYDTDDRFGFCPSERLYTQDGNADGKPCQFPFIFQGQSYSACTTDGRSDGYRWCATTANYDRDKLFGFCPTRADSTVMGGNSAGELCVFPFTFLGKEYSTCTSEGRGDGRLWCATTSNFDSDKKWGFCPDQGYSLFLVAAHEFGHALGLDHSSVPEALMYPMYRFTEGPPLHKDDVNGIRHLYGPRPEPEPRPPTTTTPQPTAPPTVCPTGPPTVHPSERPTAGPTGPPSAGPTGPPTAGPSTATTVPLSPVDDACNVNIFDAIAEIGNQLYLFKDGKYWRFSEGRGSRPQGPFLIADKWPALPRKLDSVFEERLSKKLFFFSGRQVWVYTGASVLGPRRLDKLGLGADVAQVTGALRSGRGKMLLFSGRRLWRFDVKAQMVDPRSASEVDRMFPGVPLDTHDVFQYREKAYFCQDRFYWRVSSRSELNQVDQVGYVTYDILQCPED

As for `O=C(Cc1c(-c2cc(F)c(O)c(Cl)c2)n[nH]c1-c1ccccc1)NO` [Example 54, 2-[3-(3-Chloro-5-fluoro-4-hydroxy-phenyl)-5-phenyl-1H-pyrazol-4-yl]ethanehydroxamic acid], the Ki in assay [1] turned out to be 0.42 nM. Further, in assay [1], the 50% inhibitory concentration (IC50) was 0.44 nM. In addition, the remaining activity at 10 µM in assay [2] was found to be 88%; in assay [3], 66%; in assay [4], 86%; in assay [5], 104%; in assay [6], 68%. Further, the remaining activity at 200 µM in assay [2] amounted to 28%; in assay [3], 17%; in assay [4], 39%; in assay [5] it was 61%; in assay [6] it was 5%.
`O=C(Cc1c(-c2cccc(C(=O)O)c2)n[nH]c1-c1ccc(Cl)c(O)c1F)NO` [Example 63, 3-[5-(4-Chloro-2-fluoro-3-hydroxy-phenyl)-4-[2-(hydroxyamino)-2-oxo-ethyl]-1H-pyrazol-3-yl]benzoic acid]: the Ki in assay [1] is 4 nM. Also, the IC50 in assay [1] came to 4 nM. Besides, the remaining activity at 10 µM in assay [2] stood at 105%; in assay [3] it was 95%; in assay [4] it was 94%; in assay [5], 90%; in assay [6], 99%. Also, the remaining activity at 200 µM in assay [2] worked out at 73%; in assay [3], 81%; in assay [4] it was 71%; in assay [5], 74%; in assay [6], 91%.
